For 28 compounds, minimal effective concentration results are on record in US9200008B2 (ASKA PHARMACEUTICAL CO., LTD., priority 2010, dated 2015).

The experiment deals with Human prostate cancer cell lines (PC-3 cells). The experiment in a line: Measurement of cell death-inducing activity (Test Example 1). Conditions: PC-3, 48 h, 48 hours after addition, tested at 10, 1, 0.1, 0.025 and 0.00625 μmol/L, qualitative evaluation of 10 fields, read-out: Concentration showing the cell death-inducing activity (cell death-inducing rate not less than 40%). Format: cell-based. On the procedure: The cell death-inducing activity of the compound represented by the formula (1) or the salt thereof was measured as follows.
Human prostate cancer cell lines (PC-3 cells) were seeded to 6-well plates at 1×10^5 cells/2 mL/well, and cultured in the presence of 5% CO2 at 37° C. for 48 hours. Thereafter, each compound was added thereto so as to provide 10, 1, 0.1, 0.025 and 0.00625 μmol/L. As a control, DMSO was added. After the addition, the cells were continuously cultured for 48 hours. […] When the cell death-inducing rate was not less than 40%, the compound was judged to have the cell death-inducing activity.
As to `CCn1ncc2cc(COC(=O)Nc3sc(-c4ccc(C)cc4OC)nc3C)ccc21` [Example 9-137], the minimal effective concentration came out at 0.00625 µM.

As to `CCn1ncc2cc(COC(=O)Nc3sc(-c4ccc(OC)cc4OC)nc3C)ccc21` [Example 9-138], the minimal effective concentration was determined as 0.025 µM. Regarding `CCn1ncc2cc(COC(=O)Nc3sc(-c4ccc(C)cc4C)nc3C)ccc21` [Example 9-139], the minimal effective concentration came to 0.025 µM. Take `CCn1ncc2cc(COC(=O)Nc3sc(-c4ccc(F)cc4C)nc3C)ccc21` [Example 9-140]: the minimal effective concentration was determined as 0.025 µM. `CCn1ncc2cc(COC(=O)Nc3sc(-c4ccc(Cl)cc4C)nc3C)ccc21` [Example 9-141]: the minimal effective concentration is 0.025 µM. As to `CCc1ccccc1-c1nc(C)c(NC(=O)OCc2ccc3nn(C)cc3c2)s1` [Example 9-142], the minimal effective concentration is 0.1 µM. For the compound `COc1cc(F)ccc1-c1nc(C)c(NC(=O)OCc2ccc3nn(C)cc3c2)s1` [Example 9-143], the minimal effective concentration is 0.025 µM. For the compound `COc1cc(Cl)ccc1-c1nc(C)c(NC(=O)OCc2ccc3nn(C)cc3c2)s1` [Example 9-144], the minimal effective concentration was 0.025 µM. As for `COc1cc(C)ccc1-c1nc(C)c(NC(=O)OCc2ccc3nn(C)cc3c2)s1` [Example 9-145], the minimal effective concentration was found to be 0.025 µM.

`COc1ccc(-c2nc(C)c(NC(=O)OCc3ccc4nn(C)cc4c3)s2)c(OC)c1` [Example 9-146]: the minimal effective concentration came out at 0.1 µM. For `Cc1ccc(-c2nc(C)c(NC(=O)OCc3ccc4nn(C)cc4c3)s2)c(C)c1` [Example 9-147], the minimal effective concentration amounted to 0.025 µM. As for `Cc1nc(-c2ccc(F)cc2Cl)sc1NC(=O)OCc1ccc2nn(C)cc2c1` [Example 9-148], the minimal effective concentration was 1 µM. In the case of `Cc1cc(F)ccc1-c1nc(C)c(NC(=O)OCc2ccc3nn(C)cc3c2)s1` [Example 9-149], the minimal effective concentration is 1 µM. On to `Cc1cc(Cl)ccc1-c1nc(C)c(NC(=O)OCc2ccc3nn(C)cc3c2)s1` [Example 9-150], for which the minimal effective concentration was determined as 0.025 µM.

`CCc1ccccc1-c1nc(C)c(NC(=O)OCc2ccc3nn(CC)cc3c2)s1` [Example 9-151]: the minimal effective concentration was determined as 1 µM.

Take `CCn1cc2cc(COC(=O)Nc3sc(-c4ccccc4OC)nc3C)ccc2n1` [Example 9-152]: the minimal effective concentration came to 0.1 µM. Turning to `CCn1cc2cc(COC(=O)Nc3sc(-c4ccc(F)cc4OC)nc3C)ccc2n1` [Example 9-153], the minimal effective concentration is 0.025 µM. In the case of `CCn1cc2cc(COC(=O)Nc3sc(-c4ccc(Cl)cc4OC)nc3C)ccc2n1` [Example 9-154], the minimal effective concentration stood at 0.025 µM. With `CCn1cc2cc(COC(=O)Nc3sc(-c4ccc(OC)cc4OC)nc3C)ccc2n1` [Example 9-156], the minimal effective concentration stood at 0.1 µM. Under `CCn1cc2cc(COC(=O)Nc3sc(-c4ccc(C)cc4C)nc3C)ccc2n1` [Example 9-157] stands 0.1 µM; under `CCn1cc2cc(COC(=O)Nc3sc(-c4ccc(F)cc4C)nc3C)ccc2n1` [Example 9-158], 1 µM; under `CCc1nc(-c2ccc(Cl)cc2OC)sc1NC(=O)OCc1ccc2c(c1)nnn2CC` [Example 9-160], 0.025 µM. On to `CCc1nc(-c2ccccc2OC)sc1NC(=O)OCc1ccc2c(c1)ncn2C` [Example 9-161], for which the minimal effective concentration was determined as 0.025 µM.

With `CCc1nc(-c2ccccc2OC)sc1NC(=O)OCc1ccc2c(c1)ncn2CC` [Example 9-162], the minimal effective concentration was 0.1 µM. As for `CCc1nc(-c2ccc(F)cc2C)sc1NC(=O)OCc1ccc2c(c1)ncn2C` [Example 9-163], the figure is 0.025 µM; as for `CCc1nc(-c2ccc(Cl)cc2OC)sc1NC(=O)OCc1ccc2c(c1)ncn2CC` [Example 9-164], 0.025 µM; as for `CCc1nc(-c2ccc(C)cc2OC)sc1NC(=O)OCc1ccc2c(c1)ncn2CC` [Example 9-165], 0.00625 µM.

As to `CCc1nc(-c2ccc(C)cc2C)sc1NC(=O)OCc1ccc2c(c1)ncn2CC` [Example 9-166], the minimal effective concentration stood at 0.025 µM.
